The CheMixHub viscosity set
± gives the uncertainty stated by the source.

Assay: xn = mol fraction of the nth substance listed
Settings: 101.3 kPa

CNCCO + COCCO
viscosity [mPa·s]
Settings | 293.15 K | 298.15 K | 303.15 K | 308.15 K | 313.15 K | 318.15 K | 323.15 K
x1 = 0.101 | 2.086 ± 0.11 | 1.866 ± 0.095 | 1.677 ± 0.085 | 1.516 ± 0.077 | 1.375 ± 0.07 | 1.254 ± 0.064 | 1.147 ± 0.058
x1 = 0.303 | 3.283 ± 0.17 | 2.869 ± 0.15 | 2.523 ± 0.13 | 2.234 ± 0.11 | 1.988 ± 0.1 | 1.78 ± 0.09 | 1.601 ± 0.081
x1 = 0.403 | 3.985 ± 0.2 | 3.444 ± 0.17 | 3 ± 0.15 | 2.632 ± 0.13 | 2.324 ± 0.12 | 2.064 ± 0.1 | 1.843 ± 0.093
x1 = 0.503 | 4.964 ± 0.25 | 4.234 ± 0.21 | 3.644 ± 0.18 | 3.163 ± 0.16 | 2.766 ± 0.14 | 2.435 ± 0.12 | 2.156 ± 0.11
x1 = 0.703 | 7.364 ± 0.37 | 6.129 ± 0.31 | 5.157 ± 0.26 | 4.384 ± 0.22 | 3.762 ± 0.19 | 3.256 ± 0.17 | 2.839 ± 0.14
x1 = 0.901 | 10.98 ± 0.56 | 8.877 ± 0.45 | 7.286 ± 0.37 | 6.054 ± 0.31 | 5.088 ± 0.26 | 4.323 ± 0.22 | 3.709 ± 0.19
